Results on 14 compounds are retold here after patent US7074789B2, “Kinase inhibitors” (Amgen Inc., priority 1999, dated 2006).

Type in all cases: biochemical
The target in assay [1] is T1, Lck (Homo sapiens, UniProt P06239).
T1 construct: Kinases are expressed as either kinase domains or full length constructs; made in house
Briefly: Kinase inhibition assay (33P transfer), Lck. The settings on record: for IC50: read-out: Lck-1. The gist of the method: (§1)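 Kinase domain or full-length constructs, GST- or polyHis-tagged, expressed in E. coli or baculovirus-High Five cells, sometimes with regulatory polypeptides. Activity measured as 33PO4 transfer from ATP to plate-bound poly(Glu,Tyr) 4:1 or poly(Arg,Ser) 3:1; after incubation, plates washed with 0.5% phosphoric acid and counted by liquid scintillation.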

For assay [2], the target named is T2, Zap-70 (Homo sapiens, UniProt P43403).
T2 construct: Kinases are expressed as either kinase domains or full length constructs; made in house
T2 sequence (P43403 1-619): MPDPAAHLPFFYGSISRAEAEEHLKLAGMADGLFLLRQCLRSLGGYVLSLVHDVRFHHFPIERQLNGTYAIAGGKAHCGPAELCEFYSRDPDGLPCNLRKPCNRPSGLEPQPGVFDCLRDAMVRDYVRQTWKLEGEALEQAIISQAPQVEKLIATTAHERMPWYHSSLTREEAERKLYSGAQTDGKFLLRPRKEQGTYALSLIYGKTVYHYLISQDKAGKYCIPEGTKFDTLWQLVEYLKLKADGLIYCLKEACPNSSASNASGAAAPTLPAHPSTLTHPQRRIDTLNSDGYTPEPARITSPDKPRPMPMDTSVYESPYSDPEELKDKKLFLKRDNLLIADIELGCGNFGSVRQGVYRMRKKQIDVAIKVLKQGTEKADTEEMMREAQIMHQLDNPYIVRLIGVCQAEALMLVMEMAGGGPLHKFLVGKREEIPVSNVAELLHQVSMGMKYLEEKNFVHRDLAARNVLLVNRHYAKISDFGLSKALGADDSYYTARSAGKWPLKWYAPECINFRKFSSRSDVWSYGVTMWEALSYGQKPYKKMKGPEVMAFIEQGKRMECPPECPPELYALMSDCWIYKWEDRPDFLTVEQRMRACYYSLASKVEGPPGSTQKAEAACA
Nature of the assay: Kinase inhibition assay (33P transfer), Zap-70. The settings on record: for IC50: read-out: Zap-1. The gist of the method:
as §1

Assay [3] concerns the target T3, Itk (Homo sapiens, UniProt Q08881).
T3 construct: Kinases are expressed as either kinase domains or full length constructs; made in house
T3 sequence (Q08881 1-620): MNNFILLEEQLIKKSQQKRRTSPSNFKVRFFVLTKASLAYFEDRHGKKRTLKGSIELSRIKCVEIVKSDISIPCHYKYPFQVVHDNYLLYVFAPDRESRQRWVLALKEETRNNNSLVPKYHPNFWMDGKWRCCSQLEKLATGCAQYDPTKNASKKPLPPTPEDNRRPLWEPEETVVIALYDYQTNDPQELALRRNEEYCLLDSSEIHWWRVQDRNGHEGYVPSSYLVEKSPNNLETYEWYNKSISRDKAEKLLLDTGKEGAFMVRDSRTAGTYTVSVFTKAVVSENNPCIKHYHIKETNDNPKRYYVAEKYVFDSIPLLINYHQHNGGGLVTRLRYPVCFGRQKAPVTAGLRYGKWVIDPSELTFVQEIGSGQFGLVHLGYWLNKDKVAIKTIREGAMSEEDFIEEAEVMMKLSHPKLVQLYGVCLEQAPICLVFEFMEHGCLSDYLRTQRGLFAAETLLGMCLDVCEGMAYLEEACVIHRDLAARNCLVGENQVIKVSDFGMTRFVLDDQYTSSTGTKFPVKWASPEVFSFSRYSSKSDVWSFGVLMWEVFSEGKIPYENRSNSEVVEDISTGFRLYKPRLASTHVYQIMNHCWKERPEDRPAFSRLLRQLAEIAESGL
Briefly: Kinase inhibition assay (33P transfer), Itk. The settings on record: for IC50: read-out: Itk-1. Summed up:
(§2)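 Read-out: scintillation counts of 33P moved from ATP onto synthetic peptide polymer coated on the well surface, after washing with 0.5% phosphoric acid. Enzymes were tagged (GST or polyHistidine) and came from bacterial or insect-cell expression. IC50 marks 50% loss of incorporated label.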

In assay [4] the target is T4, EGFR (Homo sapiens, UniProt P00533).
T4 construct: Kinases are expressed as either kinase domains or full length constructs; made in house
Briefly: Kinase inhibition assay (33P transfer), EGFR. The following applies: Table 2, kinase inhibition class; for IC50: read-out: EGFR-1. The gist of the method: as §2

In assay [5] the target is T5, ErbB2 (Homo sapiens, UniProt P04626).
T5 construct: Kinases are expressed as either kinase domains or full length constructs; made in house
T5 sequence (P04626 23-1255, species assumed): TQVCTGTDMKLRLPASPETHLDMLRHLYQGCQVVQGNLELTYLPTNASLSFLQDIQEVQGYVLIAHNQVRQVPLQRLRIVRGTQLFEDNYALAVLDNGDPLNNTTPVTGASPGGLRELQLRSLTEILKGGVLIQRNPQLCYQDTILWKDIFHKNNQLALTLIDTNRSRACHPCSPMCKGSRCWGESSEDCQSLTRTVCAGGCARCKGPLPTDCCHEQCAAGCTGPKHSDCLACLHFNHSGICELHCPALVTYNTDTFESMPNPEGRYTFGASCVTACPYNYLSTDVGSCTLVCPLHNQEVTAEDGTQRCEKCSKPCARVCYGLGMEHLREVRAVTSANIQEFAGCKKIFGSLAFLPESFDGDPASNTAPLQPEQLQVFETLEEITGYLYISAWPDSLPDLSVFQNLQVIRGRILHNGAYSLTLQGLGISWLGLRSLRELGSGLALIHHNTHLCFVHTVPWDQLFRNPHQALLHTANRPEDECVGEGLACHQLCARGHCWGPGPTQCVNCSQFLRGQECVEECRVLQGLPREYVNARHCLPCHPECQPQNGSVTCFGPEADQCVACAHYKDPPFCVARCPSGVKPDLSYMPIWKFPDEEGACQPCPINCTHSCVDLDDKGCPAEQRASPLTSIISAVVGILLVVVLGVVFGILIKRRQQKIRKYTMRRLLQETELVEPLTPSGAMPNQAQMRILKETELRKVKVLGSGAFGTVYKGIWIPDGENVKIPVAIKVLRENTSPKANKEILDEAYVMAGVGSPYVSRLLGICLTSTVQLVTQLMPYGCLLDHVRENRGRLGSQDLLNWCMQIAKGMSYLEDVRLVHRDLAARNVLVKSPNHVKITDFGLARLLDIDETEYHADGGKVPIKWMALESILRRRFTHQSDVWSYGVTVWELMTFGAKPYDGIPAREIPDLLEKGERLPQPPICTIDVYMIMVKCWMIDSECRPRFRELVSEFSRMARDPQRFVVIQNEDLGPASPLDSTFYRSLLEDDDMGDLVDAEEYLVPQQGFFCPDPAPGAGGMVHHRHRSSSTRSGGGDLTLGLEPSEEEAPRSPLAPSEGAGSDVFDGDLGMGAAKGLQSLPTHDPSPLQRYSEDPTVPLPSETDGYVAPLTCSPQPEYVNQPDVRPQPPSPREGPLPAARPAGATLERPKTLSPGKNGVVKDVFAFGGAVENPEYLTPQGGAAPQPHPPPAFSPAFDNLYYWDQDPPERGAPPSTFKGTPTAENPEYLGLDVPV
Nature of the assay: Kinase inhibition assay (33P transfer), ErbB2. The following applies: for IC50: read-out: ErbB2-2. The gist of the method:
as §2

Assay [6] has as its target T6, Kdr (Homo sapiens, UniProt P35968).
T6 construct: Kinases are expressed as either kinase domains or full length constructs; made in house
Nature of the assay: Kinase inhibition assay (33P transfer), Kdr. The settings on record: for IC50: read-out: KDR-1. The gist of the method:
as §1

For assay [7], the target named is T7, c-Met (Homo sapiens, UniProt P08581).
T7 construct: Kinases are expressed as either kinase domains or full length constructs; made in house
T7 sequence (P08581 25-1390): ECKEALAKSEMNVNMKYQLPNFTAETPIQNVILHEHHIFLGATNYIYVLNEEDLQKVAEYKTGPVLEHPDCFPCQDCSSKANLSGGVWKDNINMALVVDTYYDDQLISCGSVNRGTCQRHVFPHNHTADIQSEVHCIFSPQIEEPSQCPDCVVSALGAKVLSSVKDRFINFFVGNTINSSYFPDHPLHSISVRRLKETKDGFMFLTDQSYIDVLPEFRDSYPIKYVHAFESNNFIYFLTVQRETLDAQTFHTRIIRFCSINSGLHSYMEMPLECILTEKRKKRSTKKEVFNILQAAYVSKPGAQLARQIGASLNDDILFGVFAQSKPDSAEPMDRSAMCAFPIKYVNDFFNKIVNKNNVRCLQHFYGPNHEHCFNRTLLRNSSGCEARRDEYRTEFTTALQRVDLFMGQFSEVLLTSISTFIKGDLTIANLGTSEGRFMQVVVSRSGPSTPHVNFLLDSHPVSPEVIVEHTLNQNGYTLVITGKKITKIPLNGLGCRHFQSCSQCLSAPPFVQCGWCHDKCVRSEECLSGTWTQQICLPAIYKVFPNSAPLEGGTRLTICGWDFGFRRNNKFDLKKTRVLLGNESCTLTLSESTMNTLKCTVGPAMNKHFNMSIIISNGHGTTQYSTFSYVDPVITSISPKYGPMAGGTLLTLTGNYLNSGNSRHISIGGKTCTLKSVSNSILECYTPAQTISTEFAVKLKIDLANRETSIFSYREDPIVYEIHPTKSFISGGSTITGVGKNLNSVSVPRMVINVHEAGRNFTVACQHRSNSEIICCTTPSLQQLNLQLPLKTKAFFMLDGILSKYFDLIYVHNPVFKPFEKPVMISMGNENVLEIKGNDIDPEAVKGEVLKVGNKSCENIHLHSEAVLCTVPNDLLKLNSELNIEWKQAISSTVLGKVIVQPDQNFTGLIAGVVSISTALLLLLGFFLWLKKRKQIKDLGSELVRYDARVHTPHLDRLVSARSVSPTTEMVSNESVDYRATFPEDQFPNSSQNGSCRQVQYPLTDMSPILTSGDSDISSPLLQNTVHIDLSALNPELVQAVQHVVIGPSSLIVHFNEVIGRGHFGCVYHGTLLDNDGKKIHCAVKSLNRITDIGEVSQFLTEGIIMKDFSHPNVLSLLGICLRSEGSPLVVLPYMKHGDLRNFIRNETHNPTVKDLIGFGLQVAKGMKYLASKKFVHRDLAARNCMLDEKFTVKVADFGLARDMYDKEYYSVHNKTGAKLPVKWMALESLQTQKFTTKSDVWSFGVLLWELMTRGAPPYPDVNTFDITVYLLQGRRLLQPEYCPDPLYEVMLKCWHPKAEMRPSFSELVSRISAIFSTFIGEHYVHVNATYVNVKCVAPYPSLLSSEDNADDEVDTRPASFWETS
Nature of the assay: Kinase inhibition assay (33P transfer), c-Met. The following applies: Table 2, kinase inhibition class; for IC50: read-out: Met-1. The gist of the method:
as §2

For assay [8], the target named is T8, AKT (Homo sapiens, UniProt Q9Y243).
T8 construct: Kinases are expressed as either kinase domains or full length constructs; made in house
T8 sequence (Q9Y243 whole entry, the tested form may be a part): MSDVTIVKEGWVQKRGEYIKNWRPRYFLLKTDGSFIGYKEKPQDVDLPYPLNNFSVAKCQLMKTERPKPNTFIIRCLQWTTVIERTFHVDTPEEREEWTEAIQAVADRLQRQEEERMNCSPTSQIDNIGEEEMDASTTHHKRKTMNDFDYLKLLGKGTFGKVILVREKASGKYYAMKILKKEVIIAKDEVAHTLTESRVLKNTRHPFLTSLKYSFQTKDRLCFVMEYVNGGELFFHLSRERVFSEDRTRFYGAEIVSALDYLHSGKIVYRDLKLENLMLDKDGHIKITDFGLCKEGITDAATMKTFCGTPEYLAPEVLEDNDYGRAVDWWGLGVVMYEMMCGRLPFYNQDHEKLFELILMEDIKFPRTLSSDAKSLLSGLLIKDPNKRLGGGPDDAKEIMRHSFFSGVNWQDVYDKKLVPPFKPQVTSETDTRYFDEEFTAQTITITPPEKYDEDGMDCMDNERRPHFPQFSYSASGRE
Briefly: Kinase inhibition assay (33P transfer), AKT. The following applies: Table 2, kinase inhibition class; for IC50: read-out: AKT3-1. Summed up: as §1

Assay [9] has as its target T9, IGFR-1 (Homo sapiens, UniProt P08069).
T9 construct: Kinases are expressed as either kinase domains or full length constructs; made in house
Briefly: Kinase inhibition assay, IGFR-1 (Table 2). The following applies: Table 2, kinase inhibition class.

Assay [10] concerns the target T10, PDGFRB (Homo sapiens, UniProt P09619).
T10 construct: Kinases are expressed as either kinase domains or full length constructs; made in house
Briefly: Kinase inhibition assay (33P transfer), PDGFRB. The settings on record: for IC50: read-out: PDGFRB-1.

T10 sequence (P09619 33-1106, species assumed): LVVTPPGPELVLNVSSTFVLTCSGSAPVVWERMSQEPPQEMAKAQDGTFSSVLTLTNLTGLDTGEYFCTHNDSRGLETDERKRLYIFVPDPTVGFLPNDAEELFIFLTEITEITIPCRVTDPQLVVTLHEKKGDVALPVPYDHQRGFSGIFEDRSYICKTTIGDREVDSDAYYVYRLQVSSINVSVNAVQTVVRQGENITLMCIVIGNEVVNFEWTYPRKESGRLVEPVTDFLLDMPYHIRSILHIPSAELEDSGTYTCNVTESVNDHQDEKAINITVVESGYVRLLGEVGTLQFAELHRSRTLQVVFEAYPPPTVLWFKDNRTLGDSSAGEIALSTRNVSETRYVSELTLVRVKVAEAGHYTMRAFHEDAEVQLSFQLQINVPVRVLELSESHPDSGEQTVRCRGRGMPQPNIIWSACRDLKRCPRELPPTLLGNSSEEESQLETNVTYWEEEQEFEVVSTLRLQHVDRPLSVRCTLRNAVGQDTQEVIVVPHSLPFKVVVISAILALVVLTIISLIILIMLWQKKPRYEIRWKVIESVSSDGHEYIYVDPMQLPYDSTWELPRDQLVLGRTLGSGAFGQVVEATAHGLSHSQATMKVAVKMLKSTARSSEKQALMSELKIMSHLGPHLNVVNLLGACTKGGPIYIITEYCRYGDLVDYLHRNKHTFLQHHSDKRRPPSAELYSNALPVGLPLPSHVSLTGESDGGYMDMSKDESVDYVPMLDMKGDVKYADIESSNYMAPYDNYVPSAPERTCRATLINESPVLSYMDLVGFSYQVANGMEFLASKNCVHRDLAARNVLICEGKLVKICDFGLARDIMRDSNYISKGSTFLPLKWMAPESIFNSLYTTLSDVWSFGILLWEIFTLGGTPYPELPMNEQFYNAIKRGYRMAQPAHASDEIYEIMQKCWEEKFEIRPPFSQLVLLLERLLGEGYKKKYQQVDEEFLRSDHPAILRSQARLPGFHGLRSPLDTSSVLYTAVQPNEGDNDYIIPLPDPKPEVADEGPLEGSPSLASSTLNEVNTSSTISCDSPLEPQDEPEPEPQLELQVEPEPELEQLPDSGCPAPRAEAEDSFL
T1 sequence (P06239 whole entry, species assumed, the tested form may be a part): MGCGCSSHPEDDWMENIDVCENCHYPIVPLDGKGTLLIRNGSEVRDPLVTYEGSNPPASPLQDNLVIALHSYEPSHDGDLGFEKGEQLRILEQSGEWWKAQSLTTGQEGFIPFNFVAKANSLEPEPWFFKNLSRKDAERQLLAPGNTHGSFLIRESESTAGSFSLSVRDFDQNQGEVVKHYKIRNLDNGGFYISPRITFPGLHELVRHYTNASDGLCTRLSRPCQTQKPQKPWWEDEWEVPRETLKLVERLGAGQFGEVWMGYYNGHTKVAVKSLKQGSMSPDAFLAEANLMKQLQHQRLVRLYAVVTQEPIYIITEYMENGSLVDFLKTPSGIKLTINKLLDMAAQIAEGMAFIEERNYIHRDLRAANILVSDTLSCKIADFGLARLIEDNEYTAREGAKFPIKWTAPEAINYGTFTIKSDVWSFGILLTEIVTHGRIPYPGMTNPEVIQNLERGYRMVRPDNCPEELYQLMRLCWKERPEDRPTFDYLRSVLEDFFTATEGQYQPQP

Take `Cc1cccc(Nc2ncnc(N(C)c3cccc(Br)c3)n2)c1` [Compound 666]: the IC50 in [1] is 6.48 to 9.45 µM; in assay [2], above 12.2 µM; in assay [3], above 12.2 µM; in [4], below 1.08 µM; in [5], 1.08 to 6.48 µM; in assay [6] it was above 12.2 µM. In addition, the IC50 in assay [7] was 6.48 to 9.45 µM; in [8], above 12.2 µM; in assay [9], above 12.2 µM; in assay [10] it was 9.45 to 12.2 µM.
For the compound `CN(c1cccc(Cl)c1)c1ncnc(Cl)n1` [Compound 701, N-methyl-2-chloro-4(3-chloroanilino)-1,3,5-triazine], the IC50 in [1], in assay [2], in [3], in assay [4], in [5] and in assay [6] was above 17.6 µM in each case. The IC50 in assay [7], in [8], in assay [9] and in assay [10] was above 17.6 µM each time.
`CN(c1cccc(Cl)c1)c1ncnc(N(C)c2cccc(Cl)c2)n1` [Compound 702]: the IC50 in assay [1] is above 12.5 µM; in [2], above 12.5 µM; in [3], above 12.5 µM; in assay [4] it was 1.11 to 6.66 µM; in [5] it was above 12.5 µM; in assay [6], above 12.5 µM. In addition, the IC50 in [7], in [8], in assay [9] and in assay [10] was above 12.5 µM throughout.
For the compound `CN(c1cccc(Cl)c1)c1ncnc(Nc2ccc(F)c(Cl)c2)n1` [Compound 703], the IC50 in [1] is above 12.4 µM; in assay [2], above 12.4 µM; in [3] it was above 12.4 µM; in assay [4], below 1.1 µM; in [5], 9.61 to 12.4 µM; in assay [6] it was above 12.4 µM. The IC50 in assay [7], in [8], in assay [9] and in assay [10] was above 12.4 µM in each case.
For the compound `CN(c1cccc(Cl)c1)c1ncnc(Nc2ccc(CC(=O)O)cc2)n1` [Compound 705], the IC50 was above 12.2 µM in assay [1]; above 12.2 µM in [2]; above 12.2 µM in [3]; below 1.08 µM in [4]; 1.08 to 6.49 µM in assay [5]; 9.46 to 12.2 µM in assay [6]. Moreover, the IC50 in [7], in assay [8], in assay [9] and in assay [10] was above 12.2 µM in each case.
As to `CN(c1cccc(Cl)c1)c1ncnc(Nc2cccc(CC(=O)O)c2)n1` [Compound 706], the IC50 in assay [1] is above 12.2 µM; in assay [2], above 12.2 µM; in assay [3] it was above 12.2 µM; in assay [4], below 1.08 µM; in assay [5] it was below 1.08 µM; in [6] it was below 1.08 µM. Also, the IC50 in assay [7] was 1.08 to 6.49 µM; in assay [8], above 12.2 µM; in assay [9] it was above 12.2 µM; in [10] it was 6.49 to 9.46 µM.
As to `CN(c1cccc(Cl)c1)c1ncnc(Nc2cccc(Br)c2)n1` [Compound 707], the IC50 was above 11.5 µM in assay [1]; above 11.5 µM in assay [2]; above 11.5 µM in assay [3]; below 1.02 µM in [4]; above 11.5 µM in assay [5]; above 11.5 µM in [6]. The IC50 in assay [7], in assay [8], in [9] and in assay [10] was above 11.5 µM each time.
As for `CN(c1cccc(Cl)c1)c1ncnc(Nc2ccc(Cl)c(Cl)c2)n1` [Compound 708], the IC50 is above 11.8 µM in assay [1]; 6.3 to 9.19 µM in assay [2]; above 11.8 µM in assay [3]; above 11.8 µM in [4]; above 11.8 µM in [5]; above 11.8 µM in assay [6]. The IC50 in assay [7], in assay [8], in assay [9] and in assay [10] was above 11.8 µM in each case.
Turning to `Cc1cccc(Nc2ncnc(N(C)c3cccc(Cl)c3)n2)c1` [Compound 709], the IC50 in assay [1] is 7.37 to 10.7 µM; in assay [2], above 13.8 µM; in assay [3] it was above 13.8 µM; in assay [4], below 1.23 µM; in assay [5], 1.23 to 7.37 µM; in [6] it was above 13.8 µM. The IC50 is 1.23 to 7.37 µM in assay [7], above 13.8 µM in assay [8], above 13.8 µM in assay [9] and 7.37 to 10.7 µM in [10].
Regarding `COc1cc(Nc2ncnc(N(C)c3ccc(F)c(Cl)c3)n2)cc(OC)c1OC` [Compound 710], the IC50 in [1] was below 0.953 µM; in [2], above 10.7 µM; in assay [3] it was above 10.7 µM; in assay [4], below 0.953 µM; in assay [5] it was below 0.953 µM; in assay [6], 0.953 to 5.72 µM. Also, the IC50 in assay [7] was 0.953 to 5.72 µM; in assay [8], above 10.7 µM; in [9], 5.72 to 8.34 µM; in [10], 0.953 to 5.72 µM.
For the compound `COc1cc(Nc2ncnc(N(C)c3cccc(Cl)c3)n2)cc(OC)c1` [Compound 712], the IC50 in assay [1] was 1.08 to 6.45 µM; in assay [2] it was above 12.1 µM; in [3], above 12.1 µM; in assay [4], below 1.08 µM; in assay [5] it was below 1.08 µM; in assay [6] it was 1.08 to 6.45 µM. For the same compound, the IC50 was 1.08 to 6.45 µM in assay [7], above 12.1 µM in assay [8], above 12.1 µM in [9] and 1.08 to 6.45 µM in [10].
For `CN(c1ccc(F)c(Cl)c1)c1ncnc(Nc2cccc(Br)c2)n1` [Compound 713], the IC50 in assay [1] is above 11 µM; in assay [2] it was above 11 µM; in assay [3], above 11 µM; in assay [4] it was above 11 µM; in assay [5], above 11 µM; in assay [6] it was 0.979 to 5.87 µM. Moreover, the IC50 in [7], in assay [8], in assay [9] and in [10] was above 11 µM each time.
`CN(c1cccc(Cl)c1)c1ncnc(Nc2ccc3[nH]ccc3c2)n1` [Compound 714]: the IC50 is 1.14 to 6.84 µM in [1]; above 12.8 µM in assay [2]; above 12.8 µM in assay [3]; below 1.14 µM in assay [4]; below 1.14 µM in assay [5]; 1.14 to 6.84 µM in [6]. For the same compound, the IC50 in [7] is 1.14 to 6.84 µM; in [8], above 12.8 µM; in [9], 1.14 to 6.84 µM; in assay [10] it was 1.14 to 6.84 µM.
For `Fc1ccc(Nc2ncnc(Nc3ccc4[nH]ccc4c3)n2)cc1Cl` [Compound 715], the Lck-1 entry in [1] is given as “E (E>4.5 ug/mL)”. Also, the Zap-1 entry in assay [2] is “C (C>2.4 and <3.5 ug/mL)”. In [3], the Itk-1 entry is “D (D>3.5 and <4.5 ug/mL)”. In addition, the EGFR-1 result in assay [4] is listed as “A (A<0.4 ug/mL)”. The ErbB2-2 result in assay [5] is “B (B>0.4 and <2.4 ug/mL)”. Besides, in assay [6], the KDR-1 result was “B (B>0.4 and <2.4 ug/mL)”. Besides, in assay [7], the Met-1 entry was “C (C>2.4 and <3.5 ug/mL)”. The AKT3-1 result in assay [8] was “D (D>3.5 and <4.5 ug/mL)”. Further, the IGFR-1 entry in assay [9] was “B (B>0.4 and <2.4 ug/mL)”. In addition, the PDGFRB-1 entry in assay [10] is “B (B>0.4 and <2.4 ug/mL)”.
